Some results are limits rather than exact numbers.

The target in experiment [1] is T1, human β1 adrenergic receptor (Homo sapiens, UniProt P08588).
T1 construct: expressed in transfected cells; host or cells: HEK-293
The experiment can be described thus: Radioligand binding assay for human β adrenergic receptors. The conditions noted are these: [3H]-dihydroalprenolol 1 nM. On the procedure: (§1) Human embryonic kidney (HEK-293) cell lines stably expressing cloned human β1 and β2 adrenergic receptors or Chinese hamster ovarian (CHO) cell lines stably expressing cloned human β3 adrenergic receptors were grown to near confluency in DMEM or Hams F-12 media with 10% FBS in the presence of 500 μg/mL Geneticin. The cell monolayer was lifted with 2 mM EDTA in PBS. Cells were pelleted by centrifugation at 1,000 rpm, and cell pellets were either stored frozen at −80° C. or membranes were prepared immediately for use. For preparation of β1 and β2 receptor expressing membranes, cell pellets were re-suspended in lysis buffer (10 mM HEPES/HCl, 10 mM EDTA, pH 7.4 at 4° C.) and homogenized using a tight-fitting Dounce glass homogenizer (30 strokes) on ice. […] The protein concentration of the membrane suspension was determined by the methods described in Lowry et al., 1951, Journal of Biological Chemistry, 193, 265; and Bradford, Analytical Biochemistry, 1976, 72, 248-54. […]
(§2) Binding assays were performed in 96-well microtiter plates in a total assay volume of 100 μL with 10-15 μg of membrane protein containing the human β1, β2 or β3 adrenergic receptors in assay buffer (75 mM Tris/HCl pH 7.4 at 25° C., 12.5 mM MgCl2, 1 mM EDTA, 0.2% BSA). […] Non-specific binding was determined in the presence of 10 μM propranolol. […] Filter plates were washed three times with filtration buffer (75 mM Tris/HCl pH 7.4 at 4° C., 12.5 mM MgCl2, 1 mM EDTA) to remove unbound radioactivity. The plates were then dried and 50 μL of Microscint-20 liquid scintillation fluid (Packard BioScience Co., Meriden, Conn.) was added and plates were counted in a Packard Topcount liquid scintillation counter (Packard BioScience Co., Meriden, Conn.). Binding data were analyzed by nonlinear regression analysis with the GraphPad Prism Software package (GraphPad Software, Inc., San Diego, Calif.) using the 3-parameter model for one-site competition. The curve minimum was fixed to the value for nonspecific binding, as determined in the presence of 10 μM propranolol. […]

For experiment [2], the target named is T2, human β2 adrenergic receptor (Homo sapiens, UniProt P07550).
T2 construct: expressed in transfected cells; host or cells: HEK-293
The description is as above. The conditions noted are these: [3H]-dihydroalprenolol 1 nM. The method, then: as §1, §2

Experiment [3] addresses T3, human β3 adrenergic receptor (Homo sapiens, UniProt P13945).
T3 construct: expressed in transfected cells; host or cells: CHO / CHO-K1
Described as above. The conditions noted are these: [125I]-(−)-iodocyanopindolol 0.5 nM. The method, then:
as §1, §2

Experiment [4] addresses T1, human β1 adrenergic receptor. Nature of the experiment: Whole-cell cAMP Flashplate assay, heterologously expressed receptor. The experiment is classed as cell-based. The conditions noted are these: HEK-293 cells. On the procedure:
(§3) cAMP assays were performed in a radioimmunoassay format using the Flashplate Adenylyl Cyclase Activation Assay System with [^125I]-cAMP (NEN SMP004, PerkinElmer Life Sciences Inc., Boston, Mass.), according to the manufacturers instructions. For the determination of β1 and β2 […], […] HEK-293 cell lines stably expressing cloned human, β1 and β2 receptors were grown to near confluency in DMEM supplemented with 10% FBS and Geneticin (500 μg/mL). For the determination β3 receptor agonist potency (EC50), CHO-K1 cell line stably expressing cloned human or β3 adrenergic receptors was grown to near confluency in Hams F-12 media supplemented with 10% FBS and Geneticin (250 μg/mL). Cells were rinsed with PBS and detached in dPBS (Dulbecco's Phosphate Buffered Saline, without CaCl2 and MgCl2) containing 2 mM EDTA or Trypsin-EDTA solution (0.05% trypsin/0.53 mM EDTA). After counting cells in Coulter cell counter, cells were pelleted by centrifugation at 1,000 rpm and re-suspended in stimulation buffer containing IBMX (PerkinElmer Kit) pre-warmed to room temperature to a concentration of 1.6×10^6 to 2.8×10^6 cells/mL. About 40,000 to 80,000 cells per well were used in this assay. Test compounds (10 mM in DMSO) were diluted into PBS containing 0.1% BSA in Beckman Biomek-2000 and tested at 11 different concentrations ranging from 100 μM to 1 pM. Reactions were incubated for 10 min at 37° C. and stopped by adding 100 μL of cold detection buffer containing [^125I]-cAMP (NEN SMP004, PerkinElmer Life Sciences, Boston, Mass.). The amount of cAMP produced (pmol/well) was calculated based on the counts observed for the samples and cAMP standards as described in the manufacturer's user manual. Data were analyzed by nonlinear regression analysis with the GraphPad Prism Software package (GraphPad Software, Inc., San Diego, Calif.) with the sigmoidal equation. The Cheng-Prusoff equation (Cheng Y, and Prusoff W H., Biochemical Pharmacology, 1973, 22, 23, 3099-108) was used to calculate the […] values.

The target in experiment [5] is T2, human β2 adrenergic receptor. Described as above. The experiment is classed as cell-based. The conditions noted are these: HEK-293 cells. On the procedure:
as §3

The target in experiment [6] is T3, human β3 adrenergic receptor. The experiment is described as above. The experiment is classed as cell-based. The conditions noted are these: CHO-K1 cells. The method, then:
as §3

T3 sequence (P13945 whole entry): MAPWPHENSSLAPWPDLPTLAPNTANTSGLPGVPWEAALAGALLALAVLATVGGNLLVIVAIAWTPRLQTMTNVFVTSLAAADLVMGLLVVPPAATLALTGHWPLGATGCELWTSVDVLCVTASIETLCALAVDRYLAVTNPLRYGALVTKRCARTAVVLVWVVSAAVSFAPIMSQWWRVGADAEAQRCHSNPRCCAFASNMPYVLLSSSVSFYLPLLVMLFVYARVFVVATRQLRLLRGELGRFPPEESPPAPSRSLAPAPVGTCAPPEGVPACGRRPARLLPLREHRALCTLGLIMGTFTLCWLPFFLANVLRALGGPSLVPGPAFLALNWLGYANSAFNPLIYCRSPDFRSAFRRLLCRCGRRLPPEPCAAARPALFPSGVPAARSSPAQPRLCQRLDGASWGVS
T1 sequence (P08588 whole entry): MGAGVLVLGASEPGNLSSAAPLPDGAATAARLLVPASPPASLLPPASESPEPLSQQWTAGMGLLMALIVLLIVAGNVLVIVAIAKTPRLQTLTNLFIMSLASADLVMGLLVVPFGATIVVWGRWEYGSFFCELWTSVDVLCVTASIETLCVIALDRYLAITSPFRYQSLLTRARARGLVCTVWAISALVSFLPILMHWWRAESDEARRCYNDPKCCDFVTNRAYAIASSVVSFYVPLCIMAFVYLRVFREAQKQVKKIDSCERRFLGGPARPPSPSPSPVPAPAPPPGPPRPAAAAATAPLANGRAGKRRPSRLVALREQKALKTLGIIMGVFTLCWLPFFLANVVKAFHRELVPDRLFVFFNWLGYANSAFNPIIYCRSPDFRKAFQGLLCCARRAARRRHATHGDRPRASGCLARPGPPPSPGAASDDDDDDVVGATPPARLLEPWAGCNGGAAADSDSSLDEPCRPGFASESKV
T2 sequence (P07550 whole entry): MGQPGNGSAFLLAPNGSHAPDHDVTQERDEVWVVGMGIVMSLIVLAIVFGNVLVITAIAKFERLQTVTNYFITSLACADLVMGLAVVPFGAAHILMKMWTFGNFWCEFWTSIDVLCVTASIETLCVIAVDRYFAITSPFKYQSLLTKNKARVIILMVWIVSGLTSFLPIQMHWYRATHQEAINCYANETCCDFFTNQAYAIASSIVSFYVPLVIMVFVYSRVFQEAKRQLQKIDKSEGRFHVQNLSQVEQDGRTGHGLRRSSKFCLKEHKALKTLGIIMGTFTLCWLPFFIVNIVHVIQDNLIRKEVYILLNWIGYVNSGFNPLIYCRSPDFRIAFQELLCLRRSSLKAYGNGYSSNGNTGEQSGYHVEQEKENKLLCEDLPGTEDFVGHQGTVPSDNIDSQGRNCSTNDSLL

Take `Cc1cc(NC(=O)CCN2CCC(OC(=O)Nc3ccccc3-c3ccccc3)CC2)c(C)cc1CNC[C@H](O)c1ccc(O)c(NC=O)c1` [compound of formula I, biphenyl-2-ylcarbamic acid 1-[2-(4-{[(R)-2-(3-formylamino-4-hydroxyphenyl)-2-hydroxyethylamino]methyl}-2,5-dimethylphenylcarbamoyl)ethyl]-piperidin-4-yl ester]: the results for the Ki in experiment [1], in experiment [2] and in experiment [3] were greater than 1000 nM, less than 10 nM and greater than 1000 nM, respectively. Besides, the EC50 in experiment [4] was roughly 30 nM; in experiment [5] it was less than 10 nM; in experiment [6], greater than 700 nM.

What is called Ki is the dissociation constant of the complex between target and ligand, obtained from inhibition or displacement. As usually defined, the EC50 is the concentration giving half of the maximal effect.

The values above are taken from patent US7880010B2, “Crystalline forms of a dimethylphenyl compound” (Theravance, Inc., priority 2006, dated 2011).
